Results as given in PubChem BioAssay AID2060896 (Molecular Pharmacology Branch, DTP, NCI, 2025).
pIC50: −log10 of the molar value.

Tested on: 941728-121-R-J1-PDC complex spheroid viability
Assay: Anticancer human tumor 941728-121-R-J1-PDC patient-derived lung adenocarcinoma cell line growth inhibition [RAS]
Conditions: for pIC50: curve of first compound; for viability, T/C: stronger effect = lower value
How it was run: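 Agents were tested in combination matrices in half-log decrements from a top concentration at or near clinical Cmax (10 microM if undetermined). Targets were multi-cell spheroids of tumour lines plus HUVEC and MSC stromal cells.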

[1] = second compound 0.0316 µM, first compound 0.0316 µM
[2] = second compound 0.0316 µM, first compound 0.1 µM
[3] = second compound 0.0316 µM, first compound 0.316 µM
[4] = second compound 0.0316 µM, first compound 1 µM
[5] = second compound 0.0316 µM, first compound 3.16 µM
[6] = second compound 0.0316 µM, first compound 10 µM
[7] = second compound 0.1 µM, first compound 0.0316 µM
[8] = second compound 0.1 µM, first compound 0.1 µM
[9] = second compound 0.1 µM, first compound 0.316 µM
[10] = second compound 0.1 µM, first compound 1 µM
[11] = second compound 0.1 µM, first compound 3.16 µM
[12] = second compound 0.1 µM, first compound 10 µM
[13] = second compound 0.316 µM, first compound 0.0316 µM
[14] = second compound 0.316 µM, first compound 0.1 µM
[15] = second compound 0.316 µM, first compound 0.316 µM
[16] = second compound 0.316 µM, first compound 1 µM
[17] = second compound 0.316 µM, first compound 3.16 µM
[18] = second compound 0.316 µM, first compound 10 µM
[19] = second compound 1 µM, first compound 0.0316 µM
[20] = second compound 1 µM, first compound 0.1 µM
[21] = second compound 1 µM, first compound 0.316 µM
[22] = second compound 1 µM, first compound 1 µM
[23] = second compound 1 µM, first compound 3.16 µM
[24] = second compound 1 µM, first compound 10 µM
[25] = second compound 3.16 µM, first compound 0.0316 µM
[26] = second compound 3.16 µM, first compound 0.1 µM
[27] = second compound 3.16 µM, first compound 0.316 µM
[28] = second compound 3.16 µM, first compound 1 µM
[29] = second compound 3.16 µM, first compound 3.16 µM
[30] = second compound 3.16 µM, first compound 10 µM
[31] = second compound 10 µM, first compound 0.0316 µM
[32] = second compound 10 µM, first compound 0.1 µM
[33] = second compound 10 µM, first compound 0.316 µM
[34] = second compound 10 µM, first compound 1 µM
[35] = second compound 10 µM, first compound 3.16 µM
[36] = second compound 10 µM, first compound 10 µM
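Note: spheroids exposed to compounds for 7 days before readout.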
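Throughout, for viability, T/C: 100% = DMSO vehicle control viability.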

**Q.** How did the pIC50 (second compound 0.0316 µM) turn out when CC(=O)OC12COC1CC(O)C1(C)C(=O)C(O)C3=C(C)C(OC(=O)C(O)C(NC(=O)OC(C)(C)C)c4ccccc4)CC(O)(C(OC(=O)c4ccccc4)C21)C3(C)C (centres undefined) + C#Cc1c(F)ccc2cc(O)cc(-c3ncc4c(N5CC6CCC(C5)N6)nc(OCC56CCCN5CC(F)C6)nc4c3F)c12 was run?
**A.** Its pIC50 is greater than 7.50.

**Q.** And the pIC50 (second compound 0.1 µM)?
**A.** Its pIC50 is greater than 7.50.

**Q.** And the pIC50 (second compound 0.316 µM)?
**A.** The pIC50 was greater than 7.50.

**Q.** And the pIC50 (second compound 1 µM)?
**A.** The pIC50 was greater than 7.50.

**Q.** What about the pIC50 (second compound 3.16 µM) of the same compound?
**A.** The pIC50 was greater than 7.50.

**Q.** And the pIC50 (second compound 10 µM)?
**A.** The pIC50 was greater than 7.50.

**Q.** And the viability, T/C [1]?
**A.** Its viability, T/C is 39.9%.

**Q.** And the viability, T/C [2]?
**A.** Its viability, T/C is 39.7%.

**Q.** What about the viability, T/C [3] of the same compound?
**A.** The viability, T/C was 39.7%.

**Q.** What about the viability, T/C [4] of the same compound?
**A.** Its viability, T/C is 37.6%.

**Q.** And the viability, T/C [5]?
**A.** Its viability, T/C is 42.7%.

**Q.** What about the viability, T/C [6] of the same compound?
**A.** Its viability, T/C is 41.7%.

**Q.** What about the viability, T/C [7] of the same compound?
**A.** Its viability, T/C is 41.8%.

**Q.** And the viability, T/C [8]?
**A.** Its viability, T/C is 36.1%.

**Q.** And the viability, T/C [9]?
**A.** The viability, T/C was 30.3%.

**Q.** And the viability, T/C [10]?
**A.** The viability, T/C was 41.6%.

**Q.** What about the viability, T/C [11] of the same compound?
**A.** The viability, T/C was 38.2%.

**Q.** And the viability, T/C [12]?
**A.** The viability, T/C was 39.1%.

**Q.** What about the viability, T/C [13] of the same compound?
**A.** The viability, T/C was 30.5%.

**Q.** And the viability, T/C [14]?
**A.** Its viability, T/C is 36.8%.

**Q.** And the viability, T/C [15]?
**A.** The viability, T/C was 32.6%.

**Q.** And the viability, T/C [16]?
**A.** The viability, T/C was 31.2%.

**Q.** And the viability, T/C [17]?
**A.** Its viability, T/C is 33.3%.

**Q.** And the viability, T/C [18]?
**A.** Its viability, T/C is 36.7%.

**Q.** What about the viability, T/C [19] of the same compound?
**A.** Its viability, T/C is 30.6%.

**Q.** What about the viability, T/C [20] of the same compound?
**A.** Its viability, T/C is 32.3%.

**Q.** What about the viability, T/C [21] of the same compound?
**A.** Its viability, T/C is 27.8%.

**Q.** And the viability, T/C [22]?
**A.** The viability, T/C was 24.6%.

**Q.** And the viability, T/C [23]?
**A.** The viability, T/C was 28.1%.

**Q.** And the viability, T/C [24]?
**A.** Its viability, T/C is 31%.

**Q.** And the viability, T/C [25]?
**A.** Its viability, T/C is 22.9%.

**Q.** And the viability, T/C [26]?
**A.** Its viability, T/C is 26.7%.

**Q.** What about the viability, T/C [27] of the same compound?
**A.** Its viability, T/C is 23.2%.

**Q.** And the viability, T/C [28]?
**A.** The viability, T/C was 21.7%.

**Q.** And the viability, T/C [29]?
**A.** The viability, T/C was 22.8%.

**Q.** And the viability, T/C [30]?
**A.** Its viability, T/C is 25.7%.

**Q.** What about the viability, T/C [31] of the same compound?
**A.** The viability, T/C was 16.2%.

**Q.** And the viability, T/C [32]?
**A.** Its viability, T/C is 14.9%.

**Q.** And the viability, T/C [33]?
**A.** The viability, T/C was 14.1%.

**Q.** And the viability, T/C [34]?
**A.** The viability, T/C was 14%.

**Q.** What about the viability, T/C [35] of the same compound?
**A.** The viability, T/C was 15.3%.

**Q.** What about the viability, T/C [36] of the same compound?
**A.** The viability, T/C was 16%.

**Q.** What does the source list for Cc1nc(N2CCC3(CC2)COC(C)C3N)c(CO)nc1Sc1ccnc(N)c1Cl (centres undefined) + C#Cc1c(F)ccc2cc(O)cc(-c3ncc4c(N5CC6CCC(C5)N6)nc(OCC56CCCN5CC(F)C6)nc4c3F)c12?
**A.** pIC50 (second compound 0.0316 µM): > 7.50; pIC50 (second compound 0.1 µM): > 7.50; pIC50 (second compound 0.316 µM): > 7.50; pIC50 (second compound 1 µM): > 7.50; pIC50 (second compound 3.16 µM): > 7.50; pIC50 (second compound 10 µM): > 7.50; viability, T/C [1]: 50.4%; viability, T/C [2]: 42.5%; viability, T/C [3]: 37.8%; viability, T/C [4]: 33.5%; viability, T/C [5]: 34%; viability, T/C [6]: 36.8%; viability, T/C [7]: 42.8%; viability, T/C [8]: 37.8%; viability, T/C [9]: 33.1%; viability, T/C [10]: 31.7%; viability, T/C [11]: 33%; viability, T/C [12]: 35.4%; viability, T/C [13]: 37.8%; viability, T/C [14]: 34.2%; viability, T/C [15]: 35.7%; viability, T/C [16]: 29.1%; viability, T/C [17]: 32%; viability, T/C [18]: 31%; viability, T/C [19]: 30.2%; viability, T/C [20]: 32.4%; viability, T/C [21]: 29.9%; viability, T/C [22]: 27.9%; viability, T/C [23]: 30.5%; viability, T/C [24]: 32.3%; viability, T/C [25]: 28.8%; viability, T/C [26]: 29.1%; viability, T/C [27]: 25.7%; viability, T/C [28]: 23.1%; viability, T/C [29]: 25.1%; viability, T/C [30]: 26.2%; viability, T/C [31]: 20.1%; viability, T/C [32]: 21.4%; viability, T/C [33]: 19.9%; viability, T/C [34]: 19.6%; viability, T/C [35]: 21.3%; viability, T/C [36]: 20.8%
